Experimental data as given in US20040142979A1, “Heteroarylsulfonylmethyl hydroxamic acids and amides and their use as protease inhibitors” (priority 2002, published 2004).

How the values were obtained:
[1] = target: T1, Human recombinant MMP-1 (Homo sapiens, UniProt P03956); assay: In vitro MMP inhibition analysis (fluorogenic peptide substrate), MMP-1; assay type: biochemical; settings: human recombinant enzyme; 4 μM substrate (A); apparent Ki without substrate correction
T1 construct: made in house; host or cells: MMP-1-transfected HT-1080 cells (spent media)
T1 sequence (P03956 100-469): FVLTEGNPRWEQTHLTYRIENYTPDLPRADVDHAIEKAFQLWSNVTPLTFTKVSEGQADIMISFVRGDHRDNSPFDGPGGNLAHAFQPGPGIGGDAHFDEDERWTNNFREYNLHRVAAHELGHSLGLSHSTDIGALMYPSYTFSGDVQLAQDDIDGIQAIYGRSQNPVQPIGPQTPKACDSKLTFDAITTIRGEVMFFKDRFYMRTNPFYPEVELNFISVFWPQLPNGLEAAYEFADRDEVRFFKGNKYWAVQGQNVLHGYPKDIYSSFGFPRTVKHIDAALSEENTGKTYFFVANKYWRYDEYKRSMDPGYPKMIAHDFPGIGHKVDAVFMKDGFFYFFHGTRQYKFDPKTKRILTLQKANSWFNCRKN
Description: (§1) Several compounds and salts were analyzed in an in vitro assay to determine their ability to inhibit the MMP cleavage of peptide substrates. Inhibition constant (Ki) were calculated from the assayed compound-MMP interactions.
(§2) Human recombinant MMP-1, MMP-2, MMP-9, MMP-13, and MMP-14 were used in this assay. All enzymes were prepared in Assignee's laboratories following usual laboratory procedures. Protocols for the preparation and use of these enzymes are available in the scientific literature. See, e.g., Enzyme Nomenclature (Academic Press, San Diego, Calif., 1992) (and the citations therein). See also, Freije et al., J. Biol. Chem., 269(24), 16766-16773 (1994).
The MMP-1 proenzyme was purified from the spent media of MMP-1-transfected HT-1080 cells provided by Dr. Harold Welgus of Washington University (St. Louis, Mo.). The protein was purified on a zinc chelating column.
(§3) All MMPs were activated using 4-aminophenylmercuric acetate (“APMA”, Sigma Chemical, St. Louis, Mo.) or trypsin. MMP-9 also was activated using human recombinant MMP-3 (purified in Assignee's laboratory following standard cloning and purification techniques).
(§4) The following fluorogenic, methoxycoumarin-containing polypeptide substrate (A) was used in the MMP inhibition assays:
(§5) MCA-ArgProLeuGlyLeuDpaAlaArgGluArgNH2 (A)
(§6) “MCA” is 7-methoxycoumarin-4-yl acetyl. Substrate (A) was prepared Assignee's laboratory. In the absence of MMP inhibitory activity, the substrate is cleaved at the Gly-Leu peptide bond. This cleavage separates the highly fluorogenic peptide from the 2,4-dinitrophenyl quencher, thus resulting in increase of fluorescent intensity.
(§7) The stock solutions of the assayed compounds and salts were prepared in 1% dimethyl sulfoxide (DMSO). These stock solutions were diluted in Buffer A (100 mM Tris-HCl, 100 mM NaCl, 10 mM CaCl2, 0.05% polyoxyethylene 23 lauryl ether, pH 7.5) to obtain solutions with different compound concentrations, i.e., assay solutions with different concentrations of the assayed MMP inhibitory compound. The experiment controls contained the same amount of Buffer A/DMSO as the assayed sample, but contained none of the tested compound or salt.
(§8) The assays from which the Ki determinations were made were performed as follows. The assayed compound samples were incubated in separate wells of untreated white polystyrene plates (Nunc Nalgene International, Rochester, N.Y.), and analyzed on a Tecan SpectraFlour Plus plate reader. The excitation wavelength was 330 nm, and the emission wavelength -420 nm. All samples (assayed compounds and controls) were incubated in separate plate wells at room temperature for 1 hr in the presence of 4 μM of MMP substrate (A). In the absence of MMP inhibitory activity, substrate (A) was cleaved at the Gly-Leu bond resulting in an increase of relative fluorescence. Inhibition was observed as a reduced rate of this increase in relative fluorescence. […] This protocol is a modification of method by Knight et al., FEBS Lett., 296(3), 263-266 (1992). Apparent inhibitory constants were determined by non-linear regression of reaction velocity as a function of inhibitor and enzyme concentration using Morrison's equation, as described by Kuzmic, P., et al., Anal. Biochem., 286(1):45-50 (2000). Modifications were made in the non-linear regression method to allow a common control reaction rate and effective enzyme concentration to be shared between all dose-response relationships on a given assay plate. Since the substrate concentration was chosen to be at or below the Km, the apparent Ki's from this analysis were reported as Ki's without correction for the influence of substrate.
The above protocols were used to determine MMP inhibition Ki constants for the compounds in Examples 1, 2, and 4-42 above. All Ki values in Table 3 are given in nM units.

[2] = target: T2, Human recombinant MMP-13 (Homo sapiens, UniProt P45452); assay: In vitro MMP inhibition analysis (fluorogenic peptide substrate), MMP-13; assay type: biochemical; settings: human recombinant enzyme; 4 μM substrate (A); apparent Ki without substrate correction
T2 construct: made in house; host or cells: baculovirus / insect cells
Description: as §1, §2
The MMP-13 was obtained as a proenzyme from a full-length cDNA clone using baculovirus, as described by V. A. Luckow, “Insect Cell Expression Technology,” Protein Engineering: Principles and Practice, pp. 183-218 (edited by J. L. Cleland et al., Wiley-Liss, Inc., 1996). The expressed proenzyme was first purified over a heparin agarose column, and then over a chelating zinc chloride column. The proenzyme was then activated by APMA for use in the assay. […] See also, O'Reilly et al, Baculovirus Expression Vectors: A Laboratory Manual (W. H. Freeman and Co., New York, N.Y., 1992). See also, King et al., The Baculovirus Expression System: A Laboratory Guide (Chapman & Hall, London, England, 1992).
as §3, §4, §5, §6, §7
as §8, with “Modifications were made in the non-linear regression method to allow a common control reaction rate and effective enzyme concentration to be shared between all dose-response relationships on a given assay plate.” left out
All Ki values in Table 3 are given in nM units.

Ki [1] [nM] | Ki [2] [nM] | Compound
6530 | 0.275 | O=C(NO)C1(S(=O)(=O)c2ccc3nc(-c4ccc(OC(F)(F)F)cc4)sc3c2)CCOCC1 [Example 51]
> 10000 | 0.314 | CCCc1ccc(-c2nc3ccc(S(=O)(=O)C4(C(=O)NO)CCOCC4)cc3s2)cc1 [Example 53]
> 10000 | 177 | O=C(NO)C1(S(=O)(=O)c2ccc3nc(-c4cccc(C(F)(F)F)c4)sc3c2)CCOCC1 [Example 55]
> 10000 | 0.384 | O=C(NO)C1(S(=O)(=O)c2ccc3nc(-c4ccc(C(F)(F)F)cc4)sc3c2)CCOCC1 [Example 57]
> 10000 | 0.336 | CCc1ccc(-c2nc3ccc(S(=O)(=O)C4(C(=O)NO)CCOCC4)cc3s2)cc1 [Example 58]
> 1250 | 0.588 | O=C(NO)C1(S(=O)(=O)c2ccc3nc(-c4ccc(Cl)s4)sc3c2)CCOCC1 [Example 59]
2840 | 1.54 | O=C(NO)C1(S(=O)(=O)c2ccc3nc(-c4ccc(F)c(F)c4)sc3c2)CCOCC1 [Example 60]
> 10000 | 2.94 | O=C(NO)C1(S(=O)(=O)c2ccc3nc(-c4ccc(F)cc4F)sc3c2)CCOCC1 [Example 61]
2020 | 1.36 | O=C(NO)C1(S(=O)(=O)c2ccc3nc(-c4ccsc4)sc3c2)CCOCC1 [Example 62]
> 1250 | 1.05 | O=C(NO)C1(S(=O)(=O)c2ccc3nc(-c4ccc5c(c4)OCO5)sc3c2)CCOCC1 [Example 65]
> 312 | 0.082 | CCOc1ccc(-c2nc3ccc(S(=O)(=O)C4(C(=O)NO)CCOCC4)cc3s2)cc1 [Example 66]
> 10000 | 0.293 | O=C(NO)C1(S(=O)(=O)c2ccc3nc(-c4ccc(SC(F)(F)F)cc4)sc3c2)CCOCC1 [Example 67]

Second part, the compound before the results:

Compound | Ki [1] [nM] | Ki [2] [nM]
CCCCOc1ccc(-c2ccc(S(=O)(=O)C3(C(=O)NO)CCOCC3)s2)cc1 [Example 43] | > 1250 | 0.127
O=C(NO)C1(S(=O)(=O)c2ccc(-c3ccc(OC(F)(F)C(F)F)cc3)s2)CCOCC1 [Example 44] | 1120 | 0.134
CCCCCc1ccc(-c2ccc(S(=O)(=O)C3(C(=O)NO)CCOCC3)cn2)cc1 [Example 45] | > 10000 | 1.19
O=C(NO)C1(S(=O)(=O)c2ccc(-c3ccc(OCC(F)(F)F)cc3)nc2)CCOCC1 [Example 46] | 4340 | 0.169
O=C(NO)C1(S(=O)(=O)c2ccc(-c3ccc(OC(F)(F)C(F)F)cc3)nc2)CCOCC1 [Example 47] | 1490 | 0.306
O=C(NO)C1(S(=O)(=O)c2ccc(-c3ccc(OC(F)(F)C(F)F)cc3)nc2)CCOCC1 [Example 48] | 1240 | 0.192
O=C(NO)C1(S(=O)(=O)c2ccc(-c3ccc(CCC(F)(F)C(F)(F)F)cn3)s2)CCOCC1 [Example 49] | > 10000 | 0.822
O=C(NO)C1(S(=O)(=O)c2ccc(-c3ccc(C(F)(F)F)cn3)s2)CCOCC1 [Example 50] | > 10000 | 10.3
CCCCc1ccc(C(=O)C2CCN(c3nc4ccc(S(=O)(=O)C5(C(=O)NO)CCOCC5)cc4s3)CC2)s1 [Example 52] | > 10000 | 1.58
CC(C)Cc1ncc(-c2nc3ccc(S(=O)(=O)C4(C(=O)NO)CCOCC4)cc3s2)s1 [Example 54] | > 10000 | 2.73
O=C(NO)C1(S(=O)(=O)c2ccc3nc(N4CCC(Oc5ccc(OC(F)(F)F)cc5)CC4)sc3c2)CCOCC1 [Example 56] | > 10000 | 3.43
COCCN1CCC(C(=O)NO)(S(=O)(=O)c2ccc3nc(-c4ccc(OC(F)(F)F)cc4)sc3c2)CC1 [Example 63] | 9160 | 0.309
O=C(NO)C1(S(=O)(=O)c2ccc3nc(-n4cnc(-c5ccccc5)c4)sc3c2)CCOCC1 [Example 64] | > 10000 | 22.1
O=C(NO)C1(S(=O)(=O)c2ccc(-c3ccc(CCC(F)(F)F)cc3)nc2)CCOCC1 [Example 68] | > 10000 | 0.721
O=C(NO)C1(S(=O)(=O)c2ccc(-c3ccc(CCC(F)(F)C(F)(F)F)cc3)nc2)CCOCC1 [Example 69] | > 10000 | 0.531
CCCCc1ccc(C(=O)C2CCN(c3ccc(S(=O)(=O)C4(C(=O)NO)CCOCC4)cn3)CC2)s1 [Example 70] | > 10000 | 1.8
CC(C)CN(C)C(=O)Cc1ccc(-c2ccc(S(=O)(=O)C3(C(=O)NO)CCOCC3)cn2)cc1 [Example 71] | > 10000 | 1.93
O=C(Cc1ccc(-c2ccc(S(=O)(=O)C3(C(=O)NO)CCOCC3)cn2)cc1)N1CCCCC1 [Example 72] | > 10000 | 1.59
CCCCNC(=O)Cc1ccc(-c2ccc(S(=O)(=O)C3(C(=O)NO)CCOCC3)cn2)cc1 [Example 73] | > 10000 | 18.8
CCCCN(C)C(=O)Cc1ccc(-c2ccc(S(=O)(=O)C3(C(=O)NO)CCOCC3)cn2)cc1 [Example 74] | > 10000 | 1.91
CN(C(=O)Cc1ccc(-c2ccc(S(=O)(=O)C3(C(=O)NO)CCOCC3)cn2)cc1)c1ccc(OC(F)(F)F)cc1 [Example 75] | > 10000 | 140
CCCCNC(=O)c1ccc(-c2ccc(S(=O)(=O)C3(C(=O)NO)CCOCC3)cn2)cc1 [Example 76] | 4200 | 5.59
CN(C(=O)c1ccc(-c2ccc(S(=O)(=O)C3(C(=O)NO)CCOCC3)cn2)cc1)c1ccccc1 [Example 78] | > 10000 | 447
